The structures appear in SMILES notation.

From ChEMBL document CHEMBL4251606, “Design and characterization of α-lipoic acyl shikonin ester twin drugs as tubulin and PDK1 dual inhibitors” (Eur J Med Chem, 2018) come the findings set out here.

The subject of one assay is HeLa. The assay can be described thus: Antiproliferative activity against human HeLa cells after 24 hrs by MTT assay. The class given is functional, cell-based.
The next assay relates to MDA-MB-231. The assay is described as follows: Antiproliferative activity against human MDA231 cells after 24 hrs by MTT assay. The class given is functional, cell-based. The following applies: MDA-MB-231, 24 h. (Tetrazolium dyes change colour on reduction, which living cells bring about.)
A further assay relates to L02. The assay can be described thus: Antiproliferative activity against human LO2 cells after 24 hrs by MTT assay. The class given is cell-based. The following applies: L02, 24 h.
Another assay relates to HepG2. The assay is described as follows: Antiproliferative activity against human HepG2 cells after 24 hrs by MTT assay. The settings on record: HepG2, 24 h. The class given is functional, cell-based.
Another assay relates to A549. The assay is described as follows: Antiproliferative activity against human A549 cells after 24 hrs by MTT assay. The settings on record: A549, 24 h. The class given is functional, cell-based.
The next assay relates to HEK-293T. The assay is described as follows: Antiproliferative activity against human 293T cells after 24 hrs by MTT assay. The class given is cell-based.

As usually defined, the IC50 is the concentration that inhibits the measured activity by half. As for `CC(C)=CC[C@@H](OC(=O)CCCC[C@@H]1CCSC(c2cccc(C(F)(F)F)c2)S1)C1=CC(=O)c2c(O)ccc(O)c2C1=O` (stereo partly specified), the half-inhibitory concentration (IC50) in the assay with HeLa turned out to be 20.2 µM; with MDA-MB-231 it was 35.1 µM; in the assay on L02, 136 µM; with HepG2, 4.53 µM; with A549, 19.6 µM; in the assay with HEK-293T, 83.9 µM.

As for `COc1ccccc1C1SCC[C@@H](CCCCC(=O)O[C@H](CC=C(C)C)C2=CC(=O)c3c(O)ccc(O)c3C2=O)S1` (stereo partly specified), the IC50 was found to be 9.96 µM in the assay with HeLa; 24.2 µM in the assay on MDA-MB-231; 116 µM in the assay on L02; 26.7 µM with HepG2; 6.03 µM in the assay on A549; 79.3 µM in the assay with HEK-293T.

In the case of `COc1ccc(C2SCC[C@@H](CCCCC(=O)O[C@H](CC=C(C)C)C3=CC(=O)c4c(O)ccc(O)c4C3=O)S2)cc1OC` (stereo partly specified), the IC50 with HeLa is 21.9 µM; in the assay on MDA-MB-231, 16.7 µM; in the assay with L02, 99.3 µM; in the assay with HepG2, 4.34 µM; with A549, 19.3 µM; with HEK-293T, 116 µM.

Regarding `CC(C)=CC[C@@H](OC(=O)CCCC[C@@H]1CCSC(c2ccc(Cl)cc2Cl)S1)C1=CC(=O)c2c(O)ccc(O)c2C1=O` (stereo partly specified), the IC50 in the assay on HeLa is 9.17 µM; in the assay on MDA-MB-231, 28 µM; in the assay on L02, 121 µM; with HepG2 it was 17.8 µM; in the assay on A549, 17.5 µM; in the assay with HEK-293T it was 90.1 µM.

For `CC(C)=CC[C@@H](OC(=O)CCCC[C@@H]1CCSC(C2CCCCC2)S1)C1=CC(=O)c2c(O)ccc(O)c2C1=O` (stereo partly specified), the IC50 in the assay with HeLa was found to be 21.9 µM; in the assay with MDA-MB-231 it was 19.6 µM; with L02 it was 108 µM; in the assay with HepG2, 28.4 µM; in the assay on A549 it was 27.2 µM; in the assay on HEK-293T it was 116 µM.

As for `CC(C)=CC[C@@H](OC(=O)CCCC[C@@H]1CCSS1)C1=CC(=O)c2c(O)ccc(O)c2C1=O`, the IC50 came out at 28.9 µM in the assay with HeLa; 25.9 µM with MDA-MB-231; 103 µM in the assay with L02; 17.4 µM in the assay with HepG2; 14.6 µM in the assay on A549; 83.5 µM with HEK-293T.

`CC(C)=CC[C@@H](OC(=O)CCCC[C@@H]1CCSC(c2ccc([N+](=O)[O-])cc2)S1)C1=CC(=O)c2c(O)ccc(O)c2C1=O` (stereo partly specified): the concentration for half-maximal inhibition (IC50) with HeLa worked out at 26.9 µM; in the assay with MDA-MB-231, 16.2 µM; with L02, 96.2 µM; in the assay on HepG2, 20.4 µM; with A549, 22.2 µM; with HEK-293T, 95.4 µM.

With `CC(C)=CC[C@@H](OC(=O)CCCC[C@@H]1CCSC(c2ccc(Cl)cc2)S1)C1=CC(=O)c2c(O)ccc(O)c2C1=O` (stereo partly specified), the 50% inhibitory concentration (IC50) in the assay with HeLa was found to be 21.4 µM; in the assay on MDA-MB-231 it was 17.7 µM; in the assay with L02 it was 83.6 µM; in the assay on HepG2 it was 6.69 µM; with A549, 7.42 µM; in the assay on HEK-293T, 64.7 µM.

Turning to `COc1ccc(C2SCC[C@@H](CCCCC(=O)O[C@H](CC=C(C)C)C3=CC(=O)c4c(O)ccc(O)c4C3=O)S2)cc1` (stereo partly specified), the IC50 was 16 µM in the assay on HeLa; 18 µM in the assay with MDA-MB-231; 94.8 µM with L02; 30.1 µM in the assay with HepG2; 20.7 µM in the assay on A549; 105 µM in the assay on HEK-293T.

`CC(C)=CC[C@@H](OC(=O)CCCC[C@@H]1CCSC(c2c(Cl)cccc2Cl)S1)C1=CC(=O)c2c(O)ccc(O)c2C1=O` (stereo partly specified): the IC50 in the assay on HeLa worked out at 8.95 µM; in the assay on MDA-MB-231, 29.2 µM; in the assay on L02 it was 79.8 µM; in the assay with HepG2 it was 14.9 µM; in the assay on A549 it was 10.4 µM; in the assay with HEK-293T, 69.9 µM.

With `CC(C)=CC[C@@H](OC(=O)CCCC[C@@H]1CCSC(c2ccc(C(F)(F)F)cc2)S1)C1=CC(=O)c2c(O)ccc(O)c2C1=O` (stereo partly specified), the IC50 with HeLa stood at 23.4 µM; in the assay on MDA-MB-231, 9.57 µM; with L02, 90.9 µM; with HepG2, 11.8 µM; in the assay with A549, 10.2 µM; in the assay on HEK-293T it was 73.4 µM.
